Columns and labels:
L1210 [1] = assay: (§1) In vitro membrane transport activity in L1210 cells in rodent; type: functional, Mus musculus
Mus musculus [2] = species on record: Mus musculus; assay: In vitro membrane transport activity in neoplastic epithelial cells of rodent gut; type: functional, cell-based; conditions: Epithelial cell
Dihydrofolate reductase [3] = target: T1, Dihydrofolate reductase (Mus musculus, UniProt P00375); assay: In vitro inhibitory activity against L1210 dihydrofolate reductase in rodent neoplastic cells
T1 sequence (P00375 whole entry): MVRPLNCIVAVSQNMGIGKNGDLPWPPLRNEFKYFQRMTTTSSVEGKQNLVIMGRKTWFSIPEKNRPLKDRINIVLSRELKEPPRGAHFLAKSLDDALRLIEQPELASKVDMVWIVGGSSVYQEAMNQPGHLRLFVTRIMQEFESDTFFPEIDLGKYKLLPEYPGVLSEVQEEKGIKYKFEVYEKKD

Mus musculus [4] = species on record: Mus musculus; assay: In vitro membrane transport activity in S180 ascites tumor in rodent; type: functional
L1210 [5] = assay: In vitro for antitumor activity against L1210 leukemia in mice at a dose of 288 mg/kg (s.c.) was reported as percentage increase in life span; type: functional; conditions: Mus musculus, L1210, sc
L1210 [6] = assay: In vitro inhibition of L1210 cell growth in rodent neoplastic cells; type: functional, cell-based; conditions: Mus musculus
L1210 [7] = assay: as §1; type: functional, cell-based; conditions: Mus musculus
L1210 [8] = assay: In vitro for antitumor activity against L1210 leukemia in mice at a dose of 288 mg/Kg(sc) was reported as weight at termination of the therapy; type: functional, Mus musculus
Ehrlich = assay: In vitro membrane transport activity in Ehrlich cells in rodent; type: functional, cell-based; conditions: Mus musculus
L1210 [9] = assay: In vitro for antitumor activity against L1210 leukemia in mice at a dose of 288 mg/Kg(sc) was reported as maximum survival time; type: functional, Mus musculus
[10] = In vitro for antitumor activity against S180 Ascites tumor in mice at a dose of 6 mg/Kg (sc) was reported as percentage increase in life span; type: functional; conditions: Mus musculus, S-180, sc
[11] = In vitro antitumor activity against S180 Ascites tumor in mice at a dose of 15 mg/Kg (sc) was reported as maximum survival time; type: functional, Mus musculus
[12] = In vitro for antitumor activity against S180 Ascites tumor in mice at a dose of 6 mg/Kg (sc) was reported as weight at termination of the therapy; type: functional, Mus musculus
[13] = In vitro for antitumor activity against S180 Ascites tumor in mice at a dose of 15 mg/Kg (sc) was reported as percentage increase in life span; type: functional; conditions: Mus musculus, S-180, sc
Enterococcus faecium [14] = assay: In vitro antibacterial activity against Streptococcus faecium (ATCC 8043); type: functional, organism-based
[15] = In vitro antitumor activity against S180 Ascites tumor in mice at a dose of 6 mg/Kg (sc) was reported as maximum survival time; type: functional, Mus musculus
L1210 [16] = assay: In vitro for antitumor activity against L1210 leukemia in mice at a dose of 15 mg/Kg(sc) was reported as percentage increase in life span; type: functional; conditions: Mus musculus
[17] = In vitro for antitumor activity against S180 Ascites tumor in mice at a dose of 15 mg/Kg (sc) was reported as weight at termination of the therapy; type: functional, Mus musculus
L1210 [18] = assay: In vitro for antitumor activity against L1210 leukemia in mice at a dose of 15 mg/Kg(sc) was reported as maximum survival time; type: functional, Mus musculus
Enterococcus faecium [19] = assay: In vitro antibacterial activity against MTX-resistant Streptococcus faecium; type: functional, organism-based
Lacticaseibacillus casei [20] = assay: In vitro antibacterial activity against MTX-resistance Lactobacillus casei; type: functional, organism-based
L1210 [21] = assay: In vitro for antitumor activity against L1210 leukemia in mice at a dose of 15 mg/Kg(sc) was reported as weight at termination of the therapy; type: functional, Mus musculus
Lacticaseibacillus casei [22] = assay: In vitro antibacterial activity against Lactobacillus casei (ATCC 7469); type: functional, organism-based
L1210 [23] = assay: In vitro for antitumor activity against L1210 leukemia in mice at a dose of 144 mg/Kg(sc) was reported as maximum survival time; type: functional, Mus musculus
L1210 [24] = assay: In vitro for antitumor activity against L1210 leukemia in mice at a dose of 144 mg/Kg(sc) was reported as weight at termination of the therapy; type: functional, Mus musculus
Thymidylate synthase = target: T2, Thymidylate synthase (Lactobacillus casei, UniProt P00469); assay: In vitro inhibition of activity against Lactobacillus casei enzyme thymidylate synthase; type: functional, Lacticaseibacillus casei
T2 sequence (P00469 whole entry): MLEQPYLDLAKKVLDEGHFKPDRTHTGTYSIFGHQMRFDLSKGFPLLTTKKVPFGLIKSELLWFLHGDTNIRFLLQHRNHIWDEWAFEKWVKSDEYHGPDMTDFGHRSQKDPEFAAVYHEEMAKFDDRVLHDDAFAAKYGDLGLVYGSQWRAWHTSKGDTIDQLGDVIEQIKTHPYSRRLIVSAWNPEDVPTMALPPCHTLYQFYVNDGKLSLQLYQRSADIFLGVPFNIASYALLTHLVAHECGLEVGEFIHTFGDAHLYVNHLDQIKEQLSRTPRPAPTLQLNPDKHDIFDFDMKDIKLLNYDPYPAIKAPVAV

L1210 [25] = assay: In vitro for antitumor activity against L1210 leukemia in mice at a dose of 144 mg/Kg(sc) was reported as percentage increase in life span; type: functional; conditions: Mus musculus
Dihydrofolate reductase [26] = target: Dihydrofolate reductase (Lactobacillus casei, UniProt P00381); assay: In vitro inhibition of Dihydrofolate reductase activity against Lactobacillus casei enzyme; type: functional, Lacticaseibacillus casei
Sequence of Dihydrofolate reductase (Lactobacillus casei, UniProt P00381) (P00381 whole entry): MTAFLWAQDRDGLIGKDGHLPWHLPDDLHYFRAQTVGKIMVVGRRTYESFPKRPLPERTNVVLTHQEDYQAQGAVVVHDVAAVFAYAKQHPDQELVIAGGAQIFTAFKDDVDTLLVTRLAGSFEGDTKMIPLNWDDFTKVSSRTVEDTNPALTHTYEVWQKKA

[27] = In vitro for antitumor activity against S180 Ascites tumor in mice at a dose of 288 mg/Kg (sc) was reported as percentage increase in life span; type: functional; conditions: Mus musculus, S-180, sc
[28] = In vitro antitumor activity against S180 Ascites tumor in mice at a dose of 288 mg/Kg (sc) was reported as maximum survival time; type: functional, Mus musculus
[29] = In vitro for antitumor activity against S180 Ascites tumor in mice at a dose of 36 mg/Kg (sc) was reported as weight at termination of the therapy; type: functional, Mus musculus
[30] = In vitro antitumor activity against S180 Ascites tumor in mice at a dose of 36 mg/Kg (sc) was reported as maximum survival time; type: functional, Mus musculus
[31] = In vitro for antitumor activity against S180 Ascites tumor in mice at a dose of 288 mg/Kg (sc) was reported as weight at termination of the therapy; type: functional, Mus musculus
[32] = In vitro for antitumor activity against S180 Ascites tumor in mice at a dose of 36 mg/Kg (sc) was reported as percentage increase in life span; type: functional; conditions: Mus musculus, S-180, sc
L1210 [33] = assay: In vitro for antitumor activity against L1210 leukemia in mice at a dose of 288 mg/Kg(sc) was reported as percentage increase in life span; type: functional; conditions: Mus musculus

| Structure (SMILES) | k (L1210 [1]) [min⁻¹] | Km (Mus musculus [2]) [µM] | Ki (Dihydrofolate reductase [3]) [nM] | Km (Mus musculus [4]) [µM] | IC50 (L1210 [6]) [µM] | Km (L1210 [7]) [µM] | Weight at term (L1210 [8]) [g] | Km (Ehrlich) [µM] | MST (L1210 [9]) [days] | IC50 (Enterococcus faecium [14]) [µM] | IC50 (Enterococcus faecium [19]) [µM] | IC50 (Lacticaseibacillus casei [20]) [µM] | IC50 (Lacticaseibacillus casei [22]) [µM] | IC50 (Thymidylate synthase) [µM] | IC50 (Dihydrofolate reductase [26]) [µM] | further results |
| --- | --- | --- | --- | --- | --- | --- | --- | --- | --- | --- | --- | --- | --- | --- | --- | --- |
| CCCN(Cc1cnc2nc(N)nc(N)c2n1)c1ccc(C(=O)NC(CCC(=O)O)C(=O)O)cc1 (stereo unspecified) | 0.26 | 422 | 0.003 | 3.5 | 0.0022 | 3.2 | 21.3 | 4.2 | 15.8 |  |  |  |  |  |  | ILS at 288 mg/kg (L1210 [5]): 133% |
| CN(Cc1cnc2nc(N)nc(N)c2n1)c1ccc(C(=O)N[C@@H](CCC(=O)O)C(=O)O)cc1 [METHOTREXATE] | 0.23 | 339 |  | 11.4 |  | 3.7 |  | 10.1 |  | 0.09 | 7200 | > 10000 | 0.013 |  |  | ILS at 6 mg/kg [10]: 78%; MST [11]: 21.4 days; Weight at term [12]: 24.1 g; ILS at 15 mg/kg [13]: 82%; MST [15]: 17.8 days; ILS at 15 mg/kg (L1210 [16]): 152%; Weight at term [17]: 24.4 g; MST (L1210 [18]): 17.1 days; Weight at term (L1210 [21]): 19.8 g |
| CCCCCCCCN(Cc1cnc2nc(N)nc(N)c2n1)c1ccc(C(=O)NC(CCC(=O)O)C(=O)O)cc1 (stereo unspecified) | 0.89 | 1290 | 17.5 | 1.8 | 0.217 | 5.6 |  | 1.3 |  | 0.41 | 670 | > 10000 | 0.017 | > 80 | 0.012 | MST (L1210 [23]): 8.1 days; Weight at term (L1210 [24]): 22.7 g; ILS at 144 mg/kg (L1210 [25]): 16% |
| C#CCN(Cc1cnc2nc(N)nc(N)c2n1)c1ccc(C(=O)NC(CCC(=O)O)C(=O)O)cc1 (stereo unspecified) | 0.26 | 385 | 0.5 | 2.1 | 0.0014 | 3.2 | 22.3 | 2.4 | 16.6 | 0.21 | > 10000 | > 10000 | 0.014 | 20 | 0.01 | ILS at 288 mg/kg [27]: 67%; MST [28]: 19.8 days; Weight at term [29]: 23.9 g; MST [30]: 22.9 days; Weight at term [31]: 22.4 g; ILS at 36 mg/kg [32]: 129%; ILS at 288 mg/kg (L1210 [33]): 143% |
| Nc1nc(N)c2nc(CNc3ccc(C(=O)N[C@@H](CCC(=O)O)C(=O)O)cc3)cnc2n1 [AMINOPTERIN] | 0.21 |  | 0.004 |  | 0.0012 | 1.3 |  | 2.1 |  |  |  |  |  |  |  |  |
